The target of the assay is T1, GIRK1/2 (UniProt P48542+P48549).
T1 sequence (P48549 1-501): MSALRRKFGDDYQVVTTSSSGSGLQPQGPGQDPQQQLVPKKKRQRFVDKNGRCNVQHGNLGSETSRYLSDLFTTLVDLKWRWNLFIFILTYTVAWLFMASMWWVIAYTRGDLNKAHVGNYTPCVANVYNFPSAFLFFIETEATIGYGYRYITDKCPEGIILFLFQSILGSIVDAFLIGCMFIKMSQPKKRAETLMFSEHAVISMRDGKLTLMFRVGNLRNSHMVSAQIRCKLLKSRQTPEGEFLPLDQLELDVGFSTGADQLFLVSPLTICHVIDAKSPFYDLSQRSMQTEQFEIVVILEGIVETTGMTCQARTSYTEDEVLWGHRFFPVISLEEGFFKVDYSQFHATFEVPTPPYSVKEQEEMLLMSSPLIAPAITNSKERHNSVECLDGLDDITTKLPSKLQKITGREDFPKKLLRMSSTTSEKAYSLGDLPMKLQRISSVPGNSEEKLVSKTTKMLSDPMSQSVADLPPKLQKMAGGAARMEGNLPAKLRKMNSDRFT
T1 sequence (P48542 1-425): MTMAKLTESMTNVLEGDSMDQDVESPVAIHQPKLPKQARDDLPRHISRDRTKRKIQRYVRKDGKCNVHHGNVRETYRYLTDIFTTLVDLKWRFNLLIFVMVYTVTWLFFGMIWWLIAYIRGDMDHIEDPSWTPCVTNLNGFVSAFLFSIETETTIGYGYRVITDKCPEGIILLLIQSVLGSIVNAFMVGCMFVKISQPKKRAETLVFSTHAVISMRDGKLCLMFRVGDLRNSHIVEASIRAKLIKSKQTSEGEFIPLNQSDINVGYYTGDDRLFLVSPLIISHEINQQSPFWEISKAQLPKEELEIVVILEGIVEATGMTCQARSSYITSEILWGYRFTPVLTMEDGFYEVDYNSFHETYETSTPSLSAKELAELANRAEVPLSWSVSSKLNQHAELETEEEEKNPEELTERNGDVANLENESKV
Put plainly: current inhibition by light-activated phosphatase 5-ptaseOCRL, HEK293 whole-cell patch-clamp, GIRK1/2. On the set-up: expressed in transfected cells. The note with it: for percentage of GIRK1/2 channel current remaining following activation of 5-ptaseOCRL (in words) / τ of current-inhibition, GIRK1/2 (in words): 10 μM compound versus control; for protection from current inhibition, rank order, GIRK1/2: current levels and kinetics of inhibition. It is filed as cell-based, human GIRK1, mouse GIRK2. The source says:
The inventors next pursued whole-cell patch-clamp experiments to further validate the model predictions and excised-patch results. Expression of a light-activated phosphatase that upon exposure to blue light dephosphorylates PI(4,5)P2 to PI(4)P and inhibits GIRK currents allowed recording of macroscopic currents in the absence and presence of ML297 and the two brain-specific GAT compounds. […] Since GAT1508 and ML297 only bind GIRK1 or GIRK1-like (i.e. “FD-containing”, “FD”=mimics the contribution of GIRK1 residues F137 and D173, see Example 2) subunits resulting in corresponding changes in channel-PIP2 interactions and channel activity, the inventors next sought to compare channel subunit specific interactions with PIP2 for subunits bound to the ligand (P-FD) versus those not bound to the ligand (P-WT) (FIGS. 19, 38A).
Culture of HEK293 cells: HEK293-T cells were obtained from ATCC and maintained in DMEM medium supplemented with 10% FBS and 1% penicillin and streptomycin (Hyclone). For patch-clamp studies, cells were seeded on glass coverslips and transfected 24-hours later using a polyethylenimine solution (1 mg/ml) at a ratio of 8 μl per μg of DNA. To study GIRK-currents, cells were transfected with 0.75 μg each of plasmids encoding GIRK1, GIRK2 or GIRK4 as indicated. In the optogenetic experiments, cells were co-transfected with plasmids encoding 5-ptaseOCRL and CIBN-CAAX, as previously described. 5-ptaseOCRL and CIBN-CAAX were a kind gift from the DeCamilli lab, Yale CT. All experiments were performed at room temperature 24-36 hours post transfection.
Light-activated phosphatase system: The inventors used a light-activated phosphatase system to dephosphorylate PIP2 that is comprised of two fusion proteins: CRY2-5-ptaseOCRL contains the photolyase domain of cryptochrome 2 (CRY2) and the inositol 5-phosphatase domain of the […] oculocerebrorenal syndrome protein (OCRL), while CIBN-CAAX contains the CRY2 binding domain (CIBN) and a C-terminal CAAX box for plasma membrane targeting. When CRY2-5-ptaseOCRL and CIBN-CAAX fusion proteins are co-expressed and exposed to blue light between 458-488 nm, the 5-ptase is localized to the plasma membrane, where it dephosphorylates PIP2. […] The 5-ptaseOCRL system was activated using a 460 nm LED (Luminus) that was focused on the cells through the objective lens of an inverted microscope (Nikon).
Patch-clamp recording: Whole-cell currents were recorded with an Axopatch 200B amplifier (Molecular Devices) controlled via a USB-interface (National Instruments) using WinWCP software (University of Strathclyde). Currents were acquired through a lowpass Bessel filter at 2 kHz and were digitized at 10 kHz. […] Cells for study were selected based on GFP expression using an epifluorescence microscope (Nikon). […] Cells were perfused via a multi-channel gravity-driven perfusion manifold with a physiological buffer comprising: 135 mM NaCl, 5 mM KCl, 1.2 mM MgCl2, 1.5 mM CaCl2, 8 mM Glucose, and 10 mM HEPES; pH 7.4, then quickly transitioning to a high-K^+ buffer comprising 5 mM NaCl, 135 mM KCl, 1.2 mM MgCl2, 1.5 mM CaCl2, 8 mM Glucose, and 10 mM HEPES; pH 7.4. The barium-sensitive component of the current, observed when cells were perfused with the high-K^+ buffer, was analyzed and was determined by perfusing 5 mM BaCl2 in the high-K^+ buffer at the end of each experiment. The 5-ptaseOCRL system was activated using a 460 nm LED (Luminus) that was focused on the cells through the objective lens of an inverted microscope (Nikon). […] ML297, GAT1508 or GAT1521 were maintained as 10 mM stock solutions in DMSO and were diluted to concentrations between 10 μM and 1 nM using the high K^+ buffer for patch-clamp experiments.

Regarding `Cc1cc(NC(=O)Nc2ccc(Br)s2)n(-c2ccccc2)n1` [GAT1508, 1-(5-bromothiophen-2-yl)-3-(3-methyl-1-phenyl-1H-pyrazol-5-yl)urea], the “percentage of GIRK1/2 channel current remaining following activation of 5-ptaseOCRL (in words)” value is on record as “increase”; the “τ of current-inhibition, GIRK1/2 (in words)” value (“τ of current-inhibition” for short) is recorded as “increase”; the “protection from current inhibition, rank order, GIRK1/2” value (“protection from current inhibition” below) is on record as “GAT1508>GAT1521>ML297>Control”.
Take `Cc1cc(NC(=O)Nc2ccc(C)s2)n(-c2ccccc2)n1` [GAT1521, 1-(3-methyl-1-phenyl-1H-pyrazol-5-yl)-3-(5-methylthiophen-2-yl)urea]: the “percentage of GIRK1/2 channel current remaining following activation of 5-ptaseOCRL (in words)” value is “increase”; the “τ of current-inhibition” value is “increase”; the “protection from current inhibition” value is “GAT1508>GAT1521>ML297>Control”.
`Cc1cc(NC(=O)Nc2ccc(F)c(F)c2)n(-c2ccccc2)n1` [ML297, reference compound]: the “percentage of GIRK1/2 channel current remaining following activation of 5-ptaseOCRL (in words)” value is “increase”; the “τ of current-inhibition” value is reported as “increase”; the “protection from current inhibition” value is given as “GAT1508>GAT1521>ML297>Control”.

For the origin of these results see patent US12351574B2, “Selective ligands for modulation of GIRK channels” (Northeastern University, priority 2018, dated 2025).
